Test in all cases: biochemical
The target in assay [1] is T1, ZmDRIK1-K217-P492 (Zea mays, UniProt C0P4K9).
T1 construct: kinase domain, K217-P492
T1 sequence (C0P4K9 1-514): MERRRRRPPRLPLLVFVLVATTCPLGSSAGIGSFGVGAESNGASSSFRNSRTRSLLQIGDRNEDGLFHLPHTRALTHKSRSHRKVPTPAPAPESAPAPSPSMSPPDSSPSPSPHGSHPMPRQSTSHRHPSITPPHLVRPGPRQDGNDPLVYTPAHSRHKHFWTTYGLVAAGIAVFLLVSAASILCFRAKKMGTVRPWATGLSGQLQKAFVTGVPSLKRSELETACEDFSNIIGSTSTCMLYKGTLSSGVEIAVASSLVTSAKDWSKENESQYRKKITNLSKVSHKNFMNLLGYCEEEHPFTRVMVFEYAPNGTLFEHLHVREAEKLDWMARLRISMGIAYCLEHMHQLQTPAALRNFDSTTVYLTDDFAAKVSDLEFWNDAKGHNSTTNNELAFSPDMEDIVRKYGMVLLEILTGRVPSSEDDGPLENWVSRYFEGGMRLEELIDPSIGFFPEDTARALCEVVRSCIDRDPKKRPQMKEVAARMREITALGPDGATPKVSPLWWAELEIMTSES
The conditions noted are these: read-out: dTm B, sheet ZmDRIK1-K217-P492;; DSF, Boltzmann fit, 0.1% DMSO.

Assay [2] deals with T2, ZmDRIK1-K217-S514 (Zea mays, UniProt C0P4K9).
T2 construct: kinase domain, K217-S514
T2 sequence (C0P4K9 1-514): T1 sequence (C0P4K9 1-514)
To be noted: read-out: dTm B, sheet ZmDRIK1-K217-S514;; DSF, Boltzmann fit, 0.1% DMSO.

In assay [3] the target is T3, ZmDRIK1-R187-P492 (Zea mays, UniProt C0P4K9).
T3 construct: kinase domain, R187-P492
T3 sequence (C0P4K9 1-514): T1 sequence (C0P4K9 1-514)
The conditions noted are these: read-out: dTm B, DSF, Boltzmann fit, 0.1% DMSO.

Assay [4] concerns the target T4, ZmDRIK1 (DROUGHT RESPONSIVE INACTIVE KINASE 1), kinase domain (Zea mays, UniProt C0P4K9).
T4 construct: gene ZEAMMB73_Zm00001d028770; ZmDRIK1-KD R187-S514 (kinase domain)
T4 sequence (C0P4K9 187-514): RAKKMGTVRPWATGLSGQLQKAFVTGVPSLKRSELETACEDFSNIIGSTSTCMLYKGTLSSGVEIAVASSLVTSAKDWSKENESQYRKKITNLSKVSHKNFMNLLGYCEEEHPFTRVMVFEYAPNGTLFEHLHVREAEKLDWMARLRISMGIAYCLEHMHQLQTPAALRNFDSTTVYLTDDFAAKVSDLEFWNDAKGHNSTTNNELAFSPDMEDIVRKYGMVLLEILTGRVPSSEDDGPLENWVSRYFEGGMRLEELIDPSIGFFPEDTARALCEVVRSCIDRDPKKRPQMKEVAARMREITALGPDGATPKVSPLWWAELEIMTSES
The conditions noted are these: read-out: dTm B, sheet ZmDRIK1-R187-S514;; DSF, Boltzmann fit, 0.1% DMSO.

SMILES strings stand for the structures. Where a name gives a salt, the structure may show the parent alone.

In the case of `Cc1[nH]c2ccccc2c1C1=C(NCCc2ccc(F)cc2)C(=O)N(C)C1=O` [IM-12], the ΔTm at 10 µM in assay [1] was -1.43 °C; in assay [2] it was -0.628 °C; in assay [3], -0.527 °C; in assay [4], -0.881 °C.

On to `O=S(=O)(c1cccc2cnccc12)N1CCCNCC1` [Fasudil (HA-1077) HCl], for which the ΔTm at 10 µM in assay [1] was -0.949 °C; in assay [2], -0.253 °C; in assay [3], -0.0771 °C; in assay [4], -0.908 °C.

As to `O=C(c1ccc(/C=C/c2n[nH]c3ccccc23)cc1)N1CCNCC1` [KW-2449], the ΔTm at 10 µM is -0.672 °C in assay [1], -0.13 °C in assay [2], -0.0311 °C in assay [3] and -0.807 °C in assay [4].

On to `CN(C)CCOc1ccc(-c2nc(-c3ccncc3)c(-c3ccc4c(c3)CC/C4=N\O)[nH]2)cc1` [SB590885], for which the ΔTm at 10 µM in assay [1] was -0.936 °C; in assay [2], -0.286 °C; in assay [3], -0.167 °C; in assay [4] it was -0.734 °C.

For the compound `N#Cc1c(Oc2ccc(F)c(NC(=O)Cc3cccc(C(F)(F)F)c3)c2)ccc2nc(NC(=O)C3CC3)sc12` [TAK-632], the ΔTm at 10 µM is 3.91 °C in assay [1], -2.01 °C in assay [2], -0.521 °C in assay [3] and 1.64 °C in assay [4].

On to `Cn1cc(-c2cnn3c(N)c(Br)c([C@@H]4CCCNC4)nc23)cn1` [MK-8776 (SCH 900776)], for which the ΔTm at 10 µM in assay [1] is -0.951 °C; in assay [2], -0.293 °C; in assay [3] it was -0.226 °C; in assay [4] it was -0.736 °C.

On to `Cc1[nH]nc2ccc(-c3cncc(OC[C@@H](N)Cc4ccccc4)c3)cc12` [A-674563], for which the ΔTm at 10 µM is -0.898 °C in assay [1], -0.328 °C in assay [2], -0.417 °C in assay [3] and -0.493 °C in assay [4].

With `COc1cc2ncnc(Oc3cccc(NC(=O)Nc4cc(C(C)(C)C(F)(F)F)on4)c3)c2cc1OC` [CEP-32496], the ΔTm at 10 µM in assay [1] was -0.207 °C; in assay [2], -0.917 °C; in assay [3] it was -0.956 °C; in assay [4], -0.0221 °C.

Take `COc1cc2c(Oc3ccc4[nH]c(C)cc4c3F)ncnc2cc1OCCCN1CCCC1` [Cediranib (AZD2171)]: the ΔTm at 10 µM in assay [1] was -1.09 °C; in assay [2] it was -0.229 °C; in assay [3], -0.191 °C; in assay [4], -0.769 °C.

Turning to `Oc1cc(O)cc(/C=C/c2ccc(O)c(O)c2)c1` [Piceatannol], the ΔTm at 10 µM in assay [1] was -0.567 °C; in assay [2], 1.1 °C; in assay [3], 0.733 °C; in assay [4], -0.69 °C.

For the compound `O=C(O)[C@]1(Cc2cccc(Nc3nccs3)n2)CC[C@@H](Oc2cccc(Cl)c2F)CC1` [MK-5108 (VX-689)], the ΔTm at 10 µM in assay [1] was -0.754 °C; in assay [2] it was -0.299 °C; in assay [3], -0.282 °C; in assay [4], -1.14 °C.

Turning to `OCCn1cc(-c2ccc3c(c2)CC/C3=N\O)c(-c2ccncc2)n1` [GDC-0879], the ΔTm at 10 µM in assay [1] was -1.04 °C; in assay [2] it was -0.397 °C; in assay [3], -0.0449 °C; in assay [4], -0.639 °C.

Turning to `O=C(Nc1cccc(Cl)c1)Nc1ncc(CCNc2ncnc3ccsc23)s1` [SNS-314 Mesylate], the ΔTm at 10 µM in assay [1] was -0.277 °C; in assay [2] it was -1.86 °C; in assay [3], 0.159 °C; in assay [4] it was -23.9 °C.

In the case of `Cc1cc2c(F)c(Oc3ncnn4cc(OC[C@@H](C)O)c(C)c34)ccc2[nH]1` [Brivanib (BMS-540215)], the ΔTm at 10 µM is -0.796 °C in assay [1], -0.0833 °C in assay [2], -0.365 °C in assay [3] and -1.28 °C in assay [4].

`COc1ccc(S(=O)(=O)N(C(C)=O)c2ccccc2/C=C/c2cc[n+]([O-])cc2)cc1` [HMN-214]: the ΔTm at 10 µM in assay [1] was -0.694 °C; in assay [2], -0.242 °C; in assay [3] it was -0.238 °C; in assay [4] it was -0.877 °C.

With `COc1ccc(-c2ccc3c(N4CCOC[C@@H]4C)nc(N4CCOC[C@@H]4C)nc3n2)cc1CO` [AZD8055], the ΔTm at 10 µM in assay [1] was -0.668 °C; in assay [2], -0.119 °C; in assay [3], -0.00437 °C; in assay [4], -0.773 °C.

In the case of `CCCCCCCCCCCCc1ccc(S(=O)(=O)Nc2nncs2)cc1` [PHT-427], the ΔTm at 10 µM in assay [1] is -1.79 °C; in assay [2] it was -0.296 °C; in assay [3] it was -0.255 °C; in assay [4] it was -1.24 °C.

As for `C=CC(=O)Nc1cccc(Oc2nc(Nc3ccc(N4CCN(C)CC4)cc3OC)ncc2Cl)c1` [WZ4002], the ΔTm at 10 µM in assay [1] was -1.2 °C; in assay [2], -0.557 °C; in assay [3], -0.434 °C; in assay [4], -1.27 °C.

Consider `Cc1cnc(NC(=O)Nc2cc(Br)c(C)cc2OC[C@@H]2CNCCO2)cn1` [LY2603618], for which the ΔTm at 10 µM is -0.992 °C in assay [1], -0.525 °C in assay [2], -0.548 °C in assay [3] and -0.608 °C in assay [4].

For the compound `O=S(=O)(NCCNC/C=C/c1ccc(Br)cc1)c1cccc2cnccc12` [H 89 2HCl], the ΔTm at 10 µM was -0.68 °C in assay [1], -0.188 °C in assay [2], -0.178 °C in assay [3] and -0.703 °C in assay [4].

Regarding `COc1ccc(C(=O)Nc2sc3c(c2C(N)=O)CCCC3)cc1OC` [TCS 359], the ΔTm at 10 µM in assay [1] was -0.245 °C; in assay [2], -0.549 °C; in assay [3] it was -0.318 °C; in assay [4], 0.606 °C.

Turning to `Cc1ccc(C(=O)Nc2ccc(CN3CCN(C)CC3)c(C(F)(F)F)c2)cc1C#Cc1cnc2cccnn12` [Ponatinib (AP24534)], the ΔTm at 10 µM in assay [1] is -0.505 °C; in assay [2], -0.482 °C; in assay [3], -0.39 °C; in assay [4], -0.951 °C.

`O=C(c1cccc(Cl)c1F)N1CCN(Cc2cccc(Nc3nccs3)n2)CC1` [MK-8745]: the ΔTm at 10 µM in assay [1] amounted to 0.174 °C; in assay [2] it was 0.891 °C; in assay [3], 0.983 °C; in assay [4], 0.487 °C.

On to `N#CC(=C(/N)Sc1ccccc1N)/C(C#N)=C(\N)Sc1ccccc1N` [U0126-EtOH], for which the ΔTm at 10 µM in assay [1] is -1.09 °C; in assay [2] it was -0.582 °C; in assay [3] it was -0.611 °C; in assay [4] it was -1.26 °C.

Turning to `C=CC(=O)Nc1cccc(Nc2nc(Nc3ccc(OCCOC)cc3)ncc2F)c1` [AVL-292], the ΔTm at 10 µM is 0.368 °C in assay [1], 0.698 °C in assay [2], 1.32 °C in assay [3] and -0.365 °C in assay [4].

Turning to `COC(=O)[C@]12CCC(C)(C)C[C@H]1[C@H]1C(=O)C=C3[C@@]4(C)C=C(C#N)C(=O)C(C)(C)[C@@H]4CC[C@@]3(C)[C@]1(C)CC2` [Bardoxolone Methyl], the ΔTm at 10 µM is -4.07 °C in assay [1], -1.7 °C in assay [2], -1.1 °C in assay [3] and -2.89 °C in assay [4].

On to `CNC(=O)c1cc(Oc2ccc(NC(=O)Nc3ccc(Cl)c(C(F)(F)F)c3)c(F)c2)ccn1` [Regorafenib (BAY 73-4506)], for which the ΔTm at 10 µM in assay [1] is -8.99 °C; in assay [2], -0.13 °C; in assay [3] it was -5.88 °C; in assay [4] it was -15.3 °C.

The record behind these values is article PMC7158045 (BMC Plant Biology, 2020).
